In DBAASP:
≈ marks a conversion by molar mass, not a printed value. One block for each molecule: values may come before it.

Experiments:
Experiment in all cases: ≥ marks a high value that may be exact or a test limit, other limits are often not marked, values filed in µg/mL are converted to µM
[1] = tested on: Staphylococcus aureus ATCC 29213
[2] = tested on: Enterococcus faecalis ATCC 19433
[3] = tested on: Staphylococcus aureus ATCC BAA-41
[4] = tested on: Enterococcus faecalis ATCC BAA-2365
[5] = tested on: Enterococcus faecalis ATCC BAA-2316
[6] = tested on: Pseudomonas aeruginosa ATCC 27853
[7] = tested on: Pseudomonas aeruginosa ATCC BAA-2114
[8] = tested on: Acinetobacter baumannii ATCC 19606
[9] = tested on: Klebsiella pneumoniae ATCC 13883
[10] = tested on: Escherichia coli ATCC 25922
[11] = tested on: Staphylococcus epidermidis ATCC 12228
[12] = tested on: Escherichia coli ATCC BAA-2452
[13] = tested on: Staphylococcus aureus ATCC 43300
[14] = tested on: Staphylococcus aureus ATCC 33591
[15] = tested on: Staphylococcus epidermidis
[16] = tested on: Aspergillus fumigatus KCTC 6145
Pseudomonas aeruginosa = tested on: Pseudomonas aeruginosa
Escherichia coli = tested on: Escherichia coli
[17] = tested on: Candida albicans KCTC 7270
Proteus vulgaris = tested on: Proteus vulgaris
Staphylococcus aureus = tested on: Staphylococcus aureus
[18] = tested on: Listeria monocytogenes KCTC 3710
Trichosporon beigelii = tested on: Trichosporon beigelii
Salmonella typhimurium = tested on: Salmonella typhimurium
[19] = tested on: Aspergillus flavus KCTC 9471
Fusarium verticillioides = tested on: Fusarium verticillioides
Bacillus subtilis = tested on: Bacillus subtilis
Saccharomyces cerevisiae = tested on: Saccharomyces cerevisiae
[20] = tested on: Escherichia coli O157:H7 ATCC 43895
Botrytis cinerea = tested on: Botrytis cinerea
[21] = tested on: Saccharomyces cerevisiae SZMC 0644
Candida krusei CBS 573 = tested on: Candida krusei CBS 573
[22] = tested on: Candida parapsilosis CBS 604
[23] = tested on: Candida albicans ATCC 10231
[24] = tested on: Bacillus subtilis ATCC 6051
[25] = tested on: Klebsiella pneumoniae ATCC BAA-2146
[26] = tested on: Klebsiella pneumoniae ATCC 700603
[27] = tested on: Candida albicans ATCC 90028
Acinetobacter baumannii = tested on: Acinetobacter baumannii
Klebsiella pneumoniae = tested on: Klebsiella pneumoniae
[28] = tested on: Cryptococcus neoformans ATCC 208821
[29] = tested on: Enterococcus faecalis ATCC 29212
[30] = tested on: Staphylococcus aureus ATCC 6538P
[31] = tested on: Staphylococcus aureus WKZ-2
[32] = tested on: Bacillus subtilis subsp. spizizenii
[33] = tested on: Pseudomonas aeruginosa PAO1

- MIC [1]: 20 µM (≈ 72.7 µg/mL)
- MIC [2]: 15 µM (≈ 54.5 µg/mL)
- MIC [3]: 10 µM (≈ 36.3 µg/mL)
- MIC [4]: 5 µM (≈ 18.2 µg/mL)
- MIC [5]: 5 µM (≈ 18.2 µg/mL)
- MIC [6]: 20 µM (≈ 72.7 µg/mL)
- MIC [7]: 25 µM (≈ 90.8 µg/mL)
- MIC [8]: 10 µM (≈ 36.3 µg/mL)
- MIC [9]: 2.5 µM (≈ 9.08 µg/mL)
- MIC [10]: 10 µM (≈ 36.3 µg/mL)
- MIC [11]: 10 µM (≈ 36.3 µg/mL)
- MIC [12]: 10 µM (≈ 36.3 µg/mL)
- MIC [13]: 10 µM (≈ 36.3 µg/mL)
- MIC [14]: 10 µM (≈ 36.3 µg/mL)
SMILES: CC[C@H](C)[C@H](NC(=O)[C@H](CCCN=C(N)N)NC(=O)[C@H](CCC(=O)O)NC(=O)[C@@H](NC(=O)[C@@H](NC(=O)[C@H](CCCN=C(N)N)NC(=O)[C@H](CCCCN)NC(=O)[C@H](Cc1ccccc1)NC(=O)[C@H](CCC(=O)O)NC(=O)[C@H](CCCCN)NC(=O)CNC(=O)[C@@H](NC(=O)[C@@H](NC(=O)[C@@H]1CCCN1C(=O)[C@H](CO)NC(=O)[C@H](CC(C)C)NC(=O)[C@H](CCCCN)NC(=O)[C@H](CCCCN)NC(=O)[C@H](Cc1ccccc1)NC(=O)[C@H](CC(C)C)NC(=O)[C@H](CCCCN)NC(=O)[C@H](CCCCN)NC(=O)[C@H](Cc1ccccc1)NC(=O)[C@@H](N)CCCCN)C(C)C)[C@@H](C)CC)[C@@H](C)CC)C(C)C)C(=O)N[C@@H](CCCCN)C(=O)N[C@@H](CCCN=C(N)N)C(=O)N[C@@H](Cc1ccccc1)C(=O)N[C@@H](CC(C)C)C(=O)N[C@@H](CCCN=C(N)N)C(=O)O [KFKKLFKKLSPVIGKEFKRIVERIKRFLR]

- MIC [24]: 0.225 µM (≈ 0.5 µg/mL)
- MIC [25]: 7.21 µM (≈ 16 µg/mL)
- MIC [26]: 7.21 µM (≈ 16 µg/mL)
- MIC [6]: > 7.21 µM
- MIC (Pseudomonas aeruginosa): > 7.21 µM
- MIC [27]: 7.21 µM (≈ 16 µg/mL)
- MIC [8]: > 7.21 µM
- MIC [9]: 7.21 µM (≈ 16 µg/mL)
- MIC [10]: 1.8 µM (≈ 4 µg/mL)
- MIC [13]: > 7.21 µM
- MIC (Acinetobacter baumannii): 7.21 µM (≈ 16 µg/mL)
- MIC (Klebsiella pneumoniae): > 7.21 µM
- MIC [28]: 1.8 µM (≈ 4 µg/mL)
SMILES: CC[C@H](C)[C@@H]1NC(=O)CNC(=O)[C@H](CCCN=C(N)N)NC(=O)[C@H](Cc2ccc(O)cc2)NC(=O)[C@@H](NC(=O)[C@@H](NC(=O)[C@H](CCCN=C(N)N)NC(=O)[C@H](Cc2ccccc2)NC(=O)[C@H](C)NC(=O)[C@H](Cc2c[nH]c3ccccc23)NC(=O)[C@@H](N)CCCCN)C(C)C)CSSC[C@@H](C(=O)N[C@@H](Cc2ccc(O)cc2)C(=O)N[C@@H](CCCN=C(N)N)C(=O)N[C@@H](CCCN=C(N)N)C(=O)N[C@@H](CO)C(=O)N[C@@H](CCCN=C(N)N)C(=O)O)NC1=O [KWAFRVCYRGICYRRSR]

- MIC [1]: 3.16 µM (≈ 8.5 µg/mL)
- MIC [26]: 50.6 µM (≈ 136 µg/mL)
- MIC [29]: 25.3 µM (≈ 68 µg/mL)
- MIC [30]: 6.32 µM (≈ 17 µg/mL)
- MIC [31]: 3.16 µM (≈ 8.5 µg/mL)
- MIC [10]: 12.6 µM (≈ 34 µg/mL)
- MIC [32]: ≥ 50.6 µM
- MIC [33]: 50.6 µM (≈ 136 µg/mL)
SMILES: CC[C@H](C)[C@H](N)C(=O)N[C@@H](CCCCN)C(=O)N[C@@H](Cc1ccc(O)cc1)C(=O)N[C@@H](CC(C)C)C(=O)N[C@@H](CC(C)C)C(=O)N[C@H](C(=O)N[C@@H](CCCCN)C(=O)N[C@@H](CC(C)C)C(=O)N[C@@H](CCC(N)=O)C(=O)NCC(=O)N[C@@H](C)C(=O)N[C@@H](CO)C(=O)N[C@@H](CCC(N)=O)C(=O)N[C@@H](CCCCN)C(=O)N[C@H](C(=O)N[C@H](C(=O)N[C@H](C(=O)N[C@@H](CC(C)C)C(=O)N[C@@H](CCSC)C(=O)N[C@@H](CC(C)C)C(=O)N[C@@H](CCCN=C(N)N)C(=O)N[C@@H](CCCN=C(N)N)C(=O)N[C@@H](CC(N)=O)C(=O)O)[C@@H](C)O)[C@@H](C)CC)[C@@H](C)O)C(C)C [IKYLLVKLQGASQKTITLMLRRN]

Further lines, the molecule ahead of its results:

SMILES: CC[C@H](C)[C@H](NC(=O)[C@H](CCCCN)NC(=O)[C@H](CO)NC(=O)[C@H](Cc1ccccc1)NC(=O)[C@H](CC(C)C)NC(=O)[C@H](CCCCN)NC(=O)[C@H](CCC(=O)O)NC(=O)[C@H](CC(C)C)NC(=O)[C@H](CCCN=C(N)N)NC(=O)[C@H](CCCCN)NC(=O)[C@H](CO)NC(=O)[C@@H](NC(=O)[C@H](CCCCN)NC(=O)[C@H](CCCCN)NC(=O)[C@H](C)N)C(C)C)C(=O)N[C@@H](CCC(N)=O)C(=O)N[C@@H](CC(N)=O)C(=O)N[C@@H](CC(=O)O)C(=O)N[C@@H](CCCCN)C(N)=O [AKKVSKRLEKLFSKIQNDK]
- MIC [15]: 12.5 µM (≈ 28.2 µg/mL)
- MIC [16]: ≥ 50 µM
- MIC (Pseudomonas aeruginosa): 12.5 µM (≈ 28.2 µg/mL)
- MIC (Escherichia coli): 6.25 µM (≈ 14.1 µg/mL)
- MIC [17]: 25 µM (≈ 56.5 µg/mL)
- MIC (Proteus vulgaris): 12.5 µM (≈ 28.2 µg/mL)
- MIC (Staphylococcus aureus): > 12.5 µM
- MIC [18]: 12.5 µM (≈ 28.2 µg/mL)
- MIC (Trichosporon beigelii): 12.5 µM (≈ 28.2 µg/mL)
- MIC (Salmonella typhimurium): 12.5 µM (≈ 28.2 µg/mL)
- MIC [19]: ≥ 50 µM
- MIC (Fusarium verticillioides): ≥ 50 µM
- MIC (Bacillus subtilis): 3.13 µM (≈ 7.07 µg/mL)
- MIC (Saccharomyces cerevisiae): 25 µM (≈ 56.5 µg/mL)
- MIC [20]: 6.25 µM (≈ 14.1 µg/mL)
- MIC (Botrytis cinerea): ≥ 50 µM

SMILES: CC[C@H](C)[C@H](NC(=O)[C@@H]1CSSC[C@H](NC(=O)[C@H](CCCCN)NC(=O)CN)C(=O)N[C@@H](CCC(=O)O)C(=O)N[C@@H](Cc2c[nH]c3ccccc23)C(=O)N[C@@H](CCC(N)=O)C(=O)NCC(=O)NCC(=O)N[C@@H](CCC(N)=O)C(=O)N[C@@H](CC(C)C)C(=O)N[C@@H](CC(N)=O)C(=O)N1)C(=O)N[C@@H](C)C(=O)N[C@H](C(=O)O)[C@@H](C)O [GKCEWQGGQLNCIAT]
- MIC [21]: ≥ 62.2 µM
- MIC (Candida krusei CBS 573): ≥ 62.2 µM
- MIC [22]: ≥ 62.2 µM
- MIC [23]: > 62.2 µM
